Consider 11 molecules from patent US4336257A, “Novel 2-pyridylbenzimidazole compounds” (Merck & Co., Inc., priority 1980, dated 1982).

Like-named read-outs stand apart in the source and are kept apart here.

Test [1] relates to spontaneously hypertensive (SH) or renal hypertensive (RH) rat. Put plainly: antihypertensive activity in spontaneously hypertensive (SH) or renal hypertensive (RH) rat, model not specified. The test is classed as in vivo. To be noted: model not marked. On the procedure:
(§1) The xanthine oxidase activity of representative compounds was determined using an in vitro test--the antihypertensive activity was determined by administration of said compounds to a spontaneously hypertensive (SH) or renal hypertensive (RH) rat. The X.O. inhibition is expressed as % inhibition of the enzyme at a present compound concentration of 2×10^-5 M.

The target in test [2] is T1, xanthine oxidase (Bos taurus, UniProt P80457). The test is described as follows: in vitro xanthine oxidase (X.O.) inhibition. The test is classed as biochemical. Here is the method:
The xanthine oxidase activity of representative compounds was determined using an in vitro test--the antihypertensive activity was determined by administration of said compounds to a spontaneously hypertensive (SH) or renal hypertensive (RH) rat. The X.O. inhibition is expressed as % inhibition of the enzyme at a present compound concentration of 2×10^-5 M. | .circle.* using in vitro test as described in J. Med. Chem. 20,

The test system of test [3] is spontaneously hypertensive (SH) rat. Put plainly: antihypertensive activity in spontaneously hypertensive (SH) rat. The test is classed as in vivo. The following applies: SH rat (footnote 1). Here is the method: as §1
For test [4], the system named is renal hypertensive (RH) rat. The test is described as follows: antihypertensive activity in renal hypertensive (RH) rat. In kind it is in vivo. To be noted: RH rat (footnote 2). On the procedure: as §1
Test [5] concerns the target T1, xanthine oxidase. The test is described as follows: in vitro xanthine oxidase (X.O.) inhibition. In kind it is biochemical. To be noted: Table 2; amount 1.5 × 10^-5 m; read-out: X.O.I.
Where [6] appears, read: Table 1, compound concentration 2×10^-5 M, read-out: % X.O. Inhibition.
[7] abbreviates: Table 2, amount 2 × 10^-5 M, read-out: X.O.I.

T1 sequence (P80457 whole entry): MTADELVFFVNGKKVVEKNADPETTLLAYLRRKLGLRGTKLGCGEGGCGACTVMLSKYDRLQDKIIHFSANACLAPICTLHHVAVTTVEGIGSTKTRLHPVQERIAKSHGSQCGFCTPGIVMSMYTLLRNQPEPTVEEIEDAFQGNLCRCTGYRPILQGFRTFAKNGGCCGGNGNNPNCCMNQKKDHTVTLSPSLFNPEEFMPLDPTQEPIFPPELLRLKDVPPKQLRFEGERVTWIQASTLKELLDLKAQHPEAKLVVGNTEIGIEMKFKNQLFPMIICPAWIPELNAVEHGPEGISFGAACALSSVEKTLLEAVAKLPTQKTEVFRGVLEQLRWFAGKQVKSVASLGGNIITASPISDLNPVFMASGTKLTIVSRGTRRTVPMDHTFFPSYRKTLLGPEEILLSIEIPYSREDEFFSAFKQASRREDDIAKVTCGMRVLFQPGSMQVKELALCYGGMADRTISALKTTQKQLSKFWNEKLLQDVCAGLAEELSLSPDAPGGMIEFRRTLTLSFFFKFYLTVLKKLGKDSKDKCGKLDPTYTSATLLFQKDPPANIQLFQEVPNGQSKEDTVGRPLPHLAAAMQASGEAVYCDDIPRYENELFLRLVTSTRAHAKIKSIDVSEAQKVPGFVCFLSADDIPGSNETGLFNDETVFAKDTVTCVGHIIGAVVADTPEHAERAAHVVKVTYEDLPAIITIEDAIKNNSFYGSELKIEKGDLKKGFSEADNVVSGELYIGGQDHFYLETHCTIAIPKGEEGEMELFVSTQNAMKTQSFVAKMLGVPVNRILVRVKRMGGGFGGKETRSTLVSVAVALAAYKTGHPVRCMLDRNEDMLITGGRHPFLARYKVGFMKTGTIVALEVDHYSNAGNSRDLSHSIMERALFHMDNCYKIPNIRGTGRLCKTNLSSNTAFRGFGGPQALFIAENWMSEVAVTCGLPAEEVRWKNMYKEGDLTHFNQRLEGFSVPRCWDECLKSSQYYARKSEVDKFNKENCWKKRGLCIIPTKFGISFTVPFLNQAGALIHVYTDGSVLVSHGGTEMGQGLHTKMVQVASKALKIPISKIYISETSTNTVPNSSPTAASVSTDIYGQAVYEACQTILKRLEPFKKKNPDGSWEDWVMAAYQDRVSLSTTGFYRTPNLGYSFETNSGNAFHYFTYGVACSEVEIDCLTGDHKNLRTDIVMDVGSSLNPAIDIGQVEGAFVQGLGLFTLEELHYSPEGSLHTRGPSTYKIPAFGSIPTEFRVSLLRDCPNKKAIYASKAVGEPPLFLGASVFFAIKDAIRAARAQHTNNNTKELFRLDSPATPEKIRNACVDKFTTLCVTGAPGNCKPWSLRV

For `c1cncc(-c2nc3cnccc3[nH]2)c1`, the “A.H. Activity” value in test [1] was “no”. Moreover, the inhibition at 20 µM in test [2] (setting [6]) stood at 23%.

In the case of `Cc1cnc(-c2cccnc2)[nH]1`, the inhibition at 20 µM in test [2] (setting [6]) was determined as 0%. In addition, the “A.H. Activity” value in test [3] is “yes”. The matching figures for `c1cncc(-c2nc3cccnc3[nH]2)c1`: 5% and “yes”. For the molecule `Clc1ccc2[nH]c(-c3ccncc3)nc2c1` [drawing 6], the “A.H. Activity” value in test [4] is given as “yes”. The inhibition at 20 µM in test [2] (setting [6]) was 11%. `c1cc(-c2nc3cnccc3[nH]2)ccn1`: the inhibition at 20 µM in test [2] (setting [6]) came out at 62%. Besides, the “A.H. Activity” value in test [3] is given as “yes”. The matching figures for `Cc1cnc(-c2ccncc2)[nH]1`: 4% and “yes”. As to `Clc1cc2nc(-c3ccncc3)[nH]c2cc1Cl` [drawing 7], the “A.H. Activity” value in test [1] was “no”. In test [2] (setting [6]), the inhibition at 20 µM came out at 56%. For `Clc1ccc2[nH]c(-c3ccncc3)nc2c1` [drawing 13], the inhibition at 20 µM in test [2] (setting [7]) came to 11%. In the case of `Clc1cc2nc(-c3ccncc3)[nH]c2cc1Cl` [drawing 14], the inhibition at 15 µM in test [5] was determined as 50%. Regarding `Clc1ccc2[nH]c(-c3cccnc3)nc2c1`, in test [2] (setting [7]), the inhibition at 20 µM came to 0%.

For the molecule `c1cnc2[nH]c(-c3ccncc3)nc2c1`, the inhibition at 20 µM in test [2] (setting [6]) amounted to 8%. Moreover, in test [3], the “A.H. Activity” value is listed as “yes”.
